Reference: article PMC8962522, “Direct interaction of TrkA/CD44v3 is essential for NGF-promoted aggressiveness of breast cancer cells” (Journal of Experimental & Clinical Cancer Research : CR, 2022)

How the values were obtained:
[1] = tested on: MDA-MB-468 cells; test: Transwell invasion assay through collagen I, MDA-MB-468; type: cell-based; conditions: collagen 1 Transwell, 16 h after treatment; "these effects" = decrease in basal and NGF-induced invasion
Procedure: Transwell invasion assays were performed to assess cancer cell invasion in a Transwell chamber containing a collagen I-coated membrane (12-wells with inserts and […] pore size membranes; Corning, Life Sciences). A total of 1 × 10^6 starved cells (0.1% in SVF medium) were plated in the top chamber and incubated for 10 min before treatment with a peptide (50 ng/mL for 30 min); NGF was added to the lower chamber. […] and stained with Hoechst 33258 (1 mg/mL) for 30 min, and the cells that invaded the lower surface through the pores of the inserts were automatically counted under an inverted microscope with ImageJ software (with an in-house-developed plug-in).
Supplementary file 13046_2022_2314_MOESM3_ESM.pdf: Additional file 3: Supplementary Figure 1. Validation of the ectopic expression of CD44 and/or TrkA in COS-7 cells. The expression of all CD44 isoforms (A), CD44 variant 3 (B), CD44 variant 6 (C) and TrkA ([…]; D) was evaluated by RT–qPCR (normalized using PUM-1). No expression of CD44, CD44 variants [3 or 6] or TrkA was detected in COS-7 cells (A-D) compared with that in cells transfected with the expression plasmid carrying each protein. […] Quantification of the PLA results was performed using ImageJ software (30 randomly chosen fields per condition of three different experiments). […] CD44v3 and CD44v6 levels at the plasma membrane were assessed by flow cytometry (A-D). […]

[2] = tested on: TrkA/CD44v3 complex in HCC-1954 cells; test: PLA TrkA/CD44v3 complex formation in HCC-1954 cells; type: cell-based; conditions: Her2-like; NGF 100 ng/ml
Procedure: Cells (10,000 cells per well) were grown on acid-washed eight-well glass slides (Thermo Scientific) in the appropriate medium supplemented with 10% FBS for 24 h. After NGF treatment, paraformaldehyde (PAF)-fixed cells were incubated with 4% bovine serum albumin (BSA) or 5% FBS (for 1 h at 20 °C), followed by overnight incubation with primary antibodies (rabbit anti-TrkA or rabbit anti-IgG + mouse anti-pan-CD44; mouse anti-CD44v3; mouse anti-CD44v6; mouse anti-IgG2a; mouse anti-IgG2b; or mouse anti-IgG1). PLA was performed following the manufacturer’s instructions in the assay kit (Duolink PLA; Sigma–Aldrich). To obtain the correct representation of the PLA signal for each condition, 30 fields per condition were observed using a fluorescence microscope (Eclipse TiU; Nikon, Japan). The PLA signals (red dots) were automatically quantified using ImageJ software (with an in-house-developed plug-in). […]
Fig. 7 The TrkA/CD44v3 complex is formed in PR-negative breast cancer cells and tumors. TrkA/CD44v3 complex formation was measured in SUM159-PT (triple negative—i.e., ERα-, PR-, and Her2-) cells (A), T47-D (luminal A—i.e., ERα+, PR+, and Her2-) cells (B), BT-474 (luminal B—ERα+, PR+, and Her2+) cells (C), HCC-1954 (Her2-like—ERα-, PR-, and Her2+) cells (D), and 150 tumor patient samples obtained from US BioMax (HBre-Duc150Sur01) (E, F) using the proximity ligation assay (PLA). […]

Substance	effect on invasion of MDA-MB-468 cells [1]	effect on TrkA/CD44v3 complex formation (PLA) in HCC-1954 cells [2]
IDDDEDFISST [Peptide 4, mimetic peptide 4 (…) corresponding to the C-terminal region of CD44v3]	These effects on invasion were also observed in the MDA-MB-468 triple-negative breast cancer cell line	–
NGF: recombinant human β-NGF (Alomone Labs, Israel)	–	NGF induction of CD44v3/TrkA complex formation was observed in SUM-159PT (TN) and HCC-1954 (Her2) cells
